# How the values were obtained:
# COR-L279 = assay: SANGER: Inhibition of human COR-L279 cell growth in a cell viability assay.; type: functional, cell-based; conditions: Homo sapiens, COR-L279
# CP66-MEL = assay: cells; type: functional, cell-based; conditions: Homo sapiens;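 further: growth inhibition of CP66-MEL cells determined in a cell viability assay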
# Description: SANGER: Inhibition of human CP66-MEL cell growth in a cell viability assay.
# D-336MG = assay: cells; type: functional, cell-based, Homo sapiens; conditions: Homo sapiens, D-336MG
# Description: SANGER: Inhibition of human D-336MG cell growth in a cell viability assay.
# D-542MG = assay: cells; type: functional, cell-based; conditions: Homo sapiens
# Description: SANGER: Inhibition of human D-542MG cell growth in a cell viability assay.
# EHEB = assay: cells; type: functional, cell-based; conditions: Homo sapiens;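 further: growth inhibition of human EHEB cells, read out with a cell viability assay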
# Description: SANGER: Inhibition of human EHEB cell growth in a cell viability assay.
# IST-SL2 = assay: cells; type: functional, cell-based, Homo sapiens; conditions: Homo sapiens, IST-SL2;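 further: growth inhibition of human IST-SL2 cells, read out by a cell viability assay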
# Description: SANGER: Inhibition of human IST-SL2 cell growth in a cell viability assay.
# MC-CAR = assay: cells; type: functional, cell-based, Homo sapiens; conditions: Homo sapiens, MC-CAR;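 further: growth inhibition of the human MC-CAR cell line, read out by a cell viability assay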
# Description: SANGER: Inhibition of human MC-CAR cell growth in a cell viability assay.
# MHH-CALL-2 = assay: cells; type: functional, cell-based, Homo sapiens; conditions: Homo sapiens, MHH-CALL-2;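 further: growth inhibition of the cell line, read out in a cell viability assay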
# Description: SANGER: Inhibition of human MHH-CALL-2 cell growth in a cell viability assay.
# MRK-nu-1 = assay: cells; type: functional, cell-based, Homo sapiens; conditions: Homo sapiens, MRK-nu-1;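 further: cell viability assay measuring growth suppression of human MRK-nu-1 cells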
# Description: SANGER: Inhibition of human MRK-nu-1 cell growth in a cell viability assay.
# NB1 = assay: cells; type: functional, cell-based, Homo sapiens; conditions: Homo sapiens, NB1
# Description: SANGER: Inhibition of human NB1 cell growth in a cell viability assay.
# NB17 = assay: cells; type: functional, cell-based, Homo sapiens; conditions: Homo sapiens, NB17;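 further: growth inhibition of NB17 cells, read out with a cell viability assay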
# Description: SANGER: Inhibition of human NB17 cell growth in a cell viability assay.
# NCCIT = assay: SANGER: Inhibition of human NCCIT cell growth in a cell viability assay.; type: functional, cell-based; conditions: Homo sapiens, NCCIT
# NCI-H1694 = assay: cells; type: functional, cell-based, Homo sapiens; conditions: Homo sapiens, NCI-H1694;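 further: cell viability assay measuring inhibition of growth in human NCI-H1694 cells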
# Description: SANGER: Inhibition of human NCI-H1694 cell growth in a cell viability assay.
# NCI-H510A = assay: cells; type: functional, cell-based, Homo sapiens; conditions: Homo sapiens, NCI-H510A;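 further: growth inhibition of NCI-H510A cells, read out with a cell viability assay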
# Description: SANGER: Inhibition of human NCI-H510A cell growth in a cell viability assay.
# NCI-H719 = assay: cells; type: functional, cell-based, Homo sapiens; conditions: Homo sapiens, NCI-H719;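 further: growth inhibition of the cultured cell line, read out with a viability assay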
# Description: SANGER: Inhibition of human NCI-H719 cell growth in a cell viability assay.
# RPMI-6666 = assay: cells; type: functional, cell-based, Homo sapiens; conditions: Homo sapiens, RPMI-6666
# Description: SANGER: Inhibition of human RPMI-6666 cell growth in a cell viability assay.
# SIMA = assay: cells; type: functional, cell-based, Homo sapiens; conditions: Homo sapiens, SIMA;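 further: growth inhibition of SIMA cells, measured with a cell viability readout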
# Description: SANGER: Inhibition of human SIMA cell growth in a cell viability assay.
# SR = assay: cells; type: functional, cell-based, Homo sapiens; conditions: Homo sapiens, SR
# Description: SANGER: Inhibition of human SR cell growth in a cell viability assay.
# BL-70 = assay: SANGER: Inhibition of human BL-70 cell growth in a cell viability assay.; type: functional, cell-based; conditions: Homo sapiens, BL-70
# U-698-M = assay: cells; type: functional, cell-based, Homo sapiens; conditions: Homo sapiens, U-698-M
# Description: SANGER: Inhibition of human U-698-M cell growth in a cell viability assay.
# UACC-812 = assay: cells; type: functional, cell-based; conditions: Homo sapiens
# Description: SANGER: Inhibition of human UACC-812 cell growth in a cell viability assay.
# CHP-126 = assay: cells; type: functional, cell-based, Homo sapiens; conditions: Homo sapiens, CHP-126
# Description: SANGER: Inhibition of human CHP-126 cell growth in a cell viability assay.
# COLO-741 = assay: cells; type: functional, cell-based; conditions: Homo sapiens
# Description: SANGER: Inhibition of human COLO-741 cell growth in a cell viability assay.
# DU-145 = assay: cells; type: functional, cell-based; conditions: Homo sapiens
# Description: SANGER: Inhibition of human DU-145 cell growth in a cell viability assay.
# GMS-10 = assay: cells; type: functional, cell-based; conditions: Homo sapiens;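 further: growth inhibition of GMS-10 cells, read out as cell viability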
# Description: SANGER: Inhibition of human GMS-10 cell growth in a cell viability assay.
# GP5d = assay: cells; type: functional, cell-based; conditions: Homo sapiens;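 further: growth inhibition of human GP5d cells, read out with a cell viability assay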
# Description: SANGER: Inhibition of human GP5d cell growth in a cell viability assay.
# HuO9 = assay: cells; type: functional, cell-based; conditions: Homo sapiens;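 further: growth inhibition of HuO9 cells, read out with a cell viability assay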
# Description: SANGER: Inhibition of human HuO9 cell growth in a cell viability assay.
# IGR-1 = assay: cells; type: functional, cell-based; conditions: Homo sapiens;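 further: growth inhibition of human IGR-1 cells, read out with a cell viability assay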
# Description: SANGER: Inhibition of human IGR-1 cell growth in a cell viability assay.
# KYSE-410 = assay: cells; type: functional, cell-based; conditions: Homo sapiens;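 further: growth inhibition of KYSE-410 cells, measured through a cell viability readout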
# Description: SANGER: Inhibition of human KYSE-410 cell growth in a cell viability assay.
# MDA-MB-157 = assay: cells; type: functional, cell-based; conditions: Homo sapiens
# Description: SANGER: Inhibition of human MDA-MB-157 cell growth in a cell viability assay.
# MFE-280 = assay: cells; type: functional, cell-based; conditions: Homo sapiens;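 further: growth inhibition of MFE-280 cells, determined with a cell viability readout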
# Description: SANGER: Inhibition of human MFE-280 cell growth in a cell viability assay.
# NCI-H2347 = assay: cells; type: functional, cell-based; conditions: Homo sapiens;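 further: growth inhibition of the cell line, read out with a cell viability assay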
# Description: SANGER: Inhibition of human NCI-H2347 cell growth in a cell viability assay.
# NCI-H441 = assay: cells; type: functional, cell-based; conditions: Homo sapiens;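 further: growth inhibition of NCI-H441 cells, read out with a cell viability assay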
# Description: SANGER: Inhibition of human NCI-H441 cell growth in a cell viability assay.
# NCI-H520 = assay: cells; type: functional, cell-based; conditions: Homo sapiens;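 further: growth inhibition of NCI-H520 cells, measured by a cell viability assay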
# Description: SANGER: Inhibition of human NCI-H520 cell growth in a cell viability assay.
# NCI-H596 = assay: cells; type: functional, cell-based; conditions: Homo sapiens;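 further: growth inhibition of NCI-H596 cells, read out with a cell viability assay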
# Description: SANGER: Inhibition of human NCI-H596 cell growth in a cell viability assay.
# NCI-H630 = assay: cells; type: functional, cell-based; conditions: Homo sapiens;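 further: growth inhibition of NCI-H630 cells, read out with a cell viability assay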
# Description: SANGER: Inhibition of human NCI-H630 cell growth in a cell viability assay.
# OE19 = assay: cells; type: functional, cell-based; conditions: Homo sapiens;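 further: growth inhibition of OE19 cells, measured through a cell viability read-out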
# Description: SANGER: Inhibition of human OE19 cell growth in a cell viability assay.
# OVCAR-3 = assay: cells; type: functional, cell-based; conditions: Homo sapiens;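 further: growth inhibition of human OVCAR-3 cells, determined by a cell viability assay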
# Description: SANGER: Inhibition of human OVCAR-3 cell growth in a cell viability assay.
# PA-1 = assay: cells; type: functional, cell-based; conditions: Homo sapiens;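 further: IC50 for suppression of PA-1 cell proliferation, determined with a cell viability read-out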
# Description: SANGER: Inhibition of human PA-1 cell growth in a cell viability assay.
# PANC-03-27 = assay: cells; type: functional, cell-based; conditions: Homo sapiens
# Description: SANGER: Inhibition of human PANC-03-27 cell growth in a cell viability assay.
# RCM-1 = assay: cells; type: functional, cell-based; conditions: Homo sapiens;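 further: growth inhibition of the RCM-1 line, determined with a cell viability readout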
# Description: SANGER: Inhibition of human RCM-1 cell growth in a cell viability assay.
# RT-112 = assay: cells; type: functional, cell-based; conditions: Homo sapiens
# Description: SANGER: Inhibition of human RT-112 cell growth in a cell viability assay.
# SCC-4 = assay: cells; type: functional, cell-based; conditions: Homo sapiens;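 further: growth inhibition of human SCC-4 cells, read out as cell viability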
# Description: SANGER: Inhibition of human SCC-4 cell growth in a cell viability assay.
# SK-MES-1 = assay: cells; type: functional, cell-based; conditions: Homo sapiens;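 further: growth inhibition of human SK-MES-1 cells, read out with a cell viability assay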
# Description: SANGER: Inhibition of human SK-MES-1 cell growth in a cell viability assay.
# SK-OV-3 = assay: cells; type: functional, cell-based; conditions: Homo sapiens;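 further: growth inhibition of SK-OV-3 human cells, read out with a cell viability assay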
# Description: SANGER: Inhibition of human SK-OV-3 cell growth in a cell viability assay.
# SNU-449 = assay: cells; type: functional, cell-based; conditions: Homo sapiens
# Description: SANGER: Inhibition of human SNU-449 cell growth in a cell viability assay.
# SW1573 = assay: cells; type: functional, cell-based; conditions: Homo sapiens;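 further: growth inhibition of SW1573 cells, read out with a cell viability assay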
# Description: SANGER: Inhibition of human SW1573 cell growth in a cell viability assay.
# SW1710 = assay: cells; type: functional, cell-based; conditions: Homo sapiens;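 further: growth inhibition of SW1710 cells, determined with a cell viability assay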
# Description: SANGER: Inhibition of human SW1710 cell growth in a cell viability assay.
# A2058 = assay: cells; type: functional, cell-based; conditions: Homo sapiens;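 further: reduction of A2058 cell growth, read out with a viability assay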
# Description: SANGER: Inhibition of human A2058 cell growth in a cell viability assay.
# BEN = assay: cells; type: functional, cell-based; conditions: Homo sapiens;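 further: growth inhibition of the BEN cell line, read out with a cell viability assay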
# Description: SANGER: Inhibition of human BEN cell growth in a cell viability assay.
# BHT-101 = assay: cells; type: functional, cell-based; conditions: Homo sapiens
# Description: SANGER: Inhibition of human BHT-101 cell growth in a cell viability assay.
# C32 = assay: cells; type: functional, cell-based; conditions: Homo sapiens;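 further: cell viability assay, with IC50 reflecting inhibition of C32 cell growth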
# Description: SANGER: Inhibition of human C32 cell growth in a cell viability assay.
# CAL-39 = assay: cells; type: functional, cell-based; conditions: Homo sapiens;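 further: cell viability assay measuring growth inhibition of CAL-39 cells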
# Description: SANGER: Inhibition of human CAL-39 cell growth in a cell viability assay.
# CAL-51 = assay: cells; type: functional, cell-based; conditions: Homo sapiens;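 further: human CAL-51 cell line, growth inhibition read out via a cell viability assay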
# Description: SANGER: Inhibition of human CAL-51 cell growth in a cell viability assay.
# UO-31 = assay: cells; type: functional, cell-based; conditions: Homo sapiens
# Description: SANGER: Inhibition of human U031 cell growth in a cell viability assay.
# YKG-1 = assay: cells; type: functional, cell-based; conditions: Homo sapiens;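 further: cell growth inhibition, read out with a viability assay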
# Description: SANGER: Inhibition of human YKG-1 cell growth in a cell viability assay.
# CHL-1 = assay: cells; type: functional, cell-based; conditions: Homo sapiens;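 further: cell growth inhibition, read out with a cell viability assay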
# Description: SANGER: Inhibition of human CHL-1 cell growth in a cell viability assay.
# COLO-679 = assay: cells; type: functional, cell-based; conditions: Homo sapiens
# Description: SANGER: Inhibition of human COLO-679 cell growth in a cell viability assay.
structure (smiles),measurement,setting,value
CC(C)C[C@H](NC(=O)[C@H](Cc1ccccc1)NC(=O)c1cnccn1)B(O)O [BORTEZOMIB],IC50,COR-L279,> 20 nM
same,IC50,CP66-MEL,0.473 nM
same,IC50,D-336MG,0.657 nM
same,IC50,D-542MG,0.329 nM
same,IC50,EHEB,1.67 nM
same,IC50,IST-SL2,1.31 nM
same,IC50,MC-CAR,> 20 nM
same,IC50,MHH-CALL-2,> 20 nM
same,IC50,MRK-nu-1,> 20 nM
same,IC50,NB1,6.88 nM
same,IC50,NB17,2.04 nM
same,IC50,NCCIT,18.4 nM
same,IC50,NCI-H1694,7.58 nM
same,IC50,NCI-H510A,> 20 nM
same,IC50,NCI-H719,> 20 nM
same,IC50,RPMI-6666,> 20 nM
same,IC50,SIMA,> 20 nM
same,IC50,SR,1.25 nM
same,IC50,BL-70,2.12 nM
same,IC50,U-698-M,> 20 nM
same,IC50,UACC-812,> 20 nM
same,IC50,CHP-126,5.06 nM
O=C(NCCCNc1nc(Nc2cccc(NC(=O)N3CCCC3)c2)ncc1I)c1cccs1 [BX-795],IC50,COLO-741,> 5000 nM
same,IC50,D-336MG,4300 nM
same,IC50,DU-145,> 5000 nM
same,IC50,GMS-10,4120 nM
same,IC50,GP5d,> 5000 nM
same,IC50,HuO9,2560 nM
same,IC50,IGR-1,> 5000 nM
same,IC50,KYSE-410,> 5000 nM
same,IC50,MDA-MB-157,1720 nM
same,IC50,MFE-280,2570 nM
same,IC50,NB17,> 5000 nM
same,IC50,NCI-H2347,4920 nM
same,IC50,NCI-H441,> 5000 nM
same,IC50,NCI-H520,> 5000 nM
same,IC50,NCI-H596,> 5000 nM
same,IC50,NCI-H630,> 5000 nM
same,IC50,OE19,> 5000 nM
same,IC50,OVCAR-3,> 5000 nM
same,IC50,PA-1,804 nM
same,IC50,PANC-03-27,4210 nM
same,IC50,RCM-1,> 5000 nM
same,IC50,RT-112,4010 nM
same,IC50,SCC-4,> 5000 nM
same,IC50,SK-MES-1,2960 nM
same,IC50,SK-OV-3,> 5000 nM
same,IC50,SNU-449,5000 nM
same,IC50,SW1573,> 5000 nM
same,IC50,SW1710,2290 nM
same,IC50,A2058,2980 nM
same,IC50,BEN,> 5000 nM
same,IC50,BHT-101,1580 nM
same,IC50,C32,1760 nM
same,IC50,CAL-39,4310 nM
same,IC50,CAL-51,1220 nM
same,IC50,UO-31,> 5000 nM
same,IC50,YKG-1,1770 nM
same,IC50,CHL-1,1920 nM
same,IC50,COLO-679,> 5000 nM
C[C@@H](Oc1cc(-c2cnn(C3CCNCC3)c2)cnc1N)c1c(Cl)ccc(F)c1Cl [CRIZOTINIB],IC50,COR-L279,> 2000 nM
same,IC50,CP66-MEL,> 2000 nM
same,IC50,D-336MG,> 2000 nM
same,IC50,EHEB,> 2000 nM
same,IC50,IST-SL2,> 2000 nM
same,IC50,MC-CAR,> 2000 nM
same,IC50,MHH-CALL-2,683 nM
same,IC50,MRK-nu-1,> 2000 nM
same,IC50,NB1,92 nM
same,IC50,NB17,> 2000 nM
same,IC50,NCCIT,> 2000 nM
same,IC50,NCI-H1694,> 2000 nM
same,IC50,NCI-H510A,> 2000 nM
same,IC50,NCI-H719,> 2000 nM
same,IC50,RPMI-6666,> 2000 nM
same,IC50,SIMA,> 2000 nM
same,IC50,SR,126 nM
same,IC50,BL-70,> 2000 nM
same,IC50,U-698-M,> 2000 nM
same,IC50,UACC-812,> 2000 nM
same,IC50,CHP-126,> 2000 nM
Nc1ccccc1NC(=O)c1ccc(CNC(=O)OCc2cccnc2)cc1 [ENTINOSTAT],IC50,COR-L279,710 nM
same,IC50,CP66-MEL,2480 nM
same,IC50,D-336MG,> 5000 nM
same,IC50,D-542MG,1890 nM
same,IC50,EHEB,926 nM
same,IC50,IST-SL2,2000 nM
same,IC50,MC-CAR,> 5000 nM
same,IC50,MHH-CALL-2,1250 nM
same,IC50,MRK-nu-1,432 nM
same,IC50,NB1,1280 nM
same,IC50,NB17,544 nM
same,IC50,NCCIT,386 nM
same,IC50,NCI-H1694,4130 nM
same,IC50,NCI-H510A,2050 nM
same,IC50,NCI-H719,1180 nM
same,IC50,RPMI-6666,411 nM
same,IC50,SIMA,> 5000 nM
same,IC50,SR,343 nM
same,IC50,BL-70,857 nM
same,IC50,U-698-M,> 5000 nM
same,IC50,UACC-812,> 5000 nM
same,IC50,CHP-126,402 nM

# — ChEMBL document CHEMBL1201861, “Genomics of Drug Sensitity in Cancer screening data, Wellcome Trust Sanger Institute”
